Source: US20080194585A1, “Fungicidal Pyrazine Derivatives” (priority 2005, published 2008)
Where two headings read alike, the source gives them in different places. Marks after values point to notes of the source that are not given here.

Legend:
[1] = tested on: Phytophthora infestans; experiment: whole plant or invertebrate; assay type: in vivo; conditions: for pest or weed control at 200 ppm: Phytophthora infestans, in Solanum lycopersicum, topical, 144 h, read-out: Test F disease control rating; for Test F disease control rating: 100 = 100% disease control
[2] = tested on: Puccinia recondita f. sp. tritici; experiment: Test K: wheat leaf rust, preventive spray on wheat seedlings; conditions: for Test K disease control rating: 40 ppm (marked *), 100 = 100% disease control, 0 = no control
[3] = tested on: Colletotrichum orbiculare; experiment: Test B: cucumber Colletotrichum anthracnose, preventive spray on cucumber seedlings; conditions: 100 = 100% disease control; for pest or weed control at 200 ppm: read-out: Test B disease control rating, 200 ppm; for Test B disease control rating: 40 ppm (marked *)
[4] = tested on: Pythium aphanidermatum; experiment: Test A: bluegrass pythium blight, preventive spray on bluegrass seedlings; conditions: for pest or weed control at 200 ppm: Pythium aphanidermatum, 120 h, read-out: Test A disease control rating; for Test A disease control rating: 100 = 100% disease control
[5] = tested on: Rhizoctonia oryzae; experiment: Test G: turf brown patch, preventive spray on creeping bent grass seedlings; conditions: 100 = 100% disease control; for pest or weed control at 200 ppm: read-out: Test G disease control rating, 200 ppm; for Test G disease control rating: 40 ppm (marked *)
Description: (the causal agent of turf brown patch) and incubated in a saturated atmosphere at 27° C. for 24 h, and then moved to a growth chamber at 27° C. for 5 days, after which disease ratings were made.

[6] = tested on: Septoria nodorum; experiment: Test H: wheat glum blotch, preventive spray on wheat seedlings; conditions: 100 = 100% disease control; for pest or weed control at 200 ppm: read-out: Test H disease control rating, 200 ppm
Description: (the causal agent of wheat glum blotch) and incubated in a saturated atmosphere at 20° C. for 48 h, and then moved to a growth chamber at 22° C. for 5 days, after which disease ratings were made.

[7] = tested on: Septoria tritici; experiment: Test J: wheat leaf blotch, preventive spray on wheat seedlings; assay type: in vivo; conditions: 100 = 100% disease control, 0 = no control; for Test J disease control rating / pest or weed control at 40 ppm: 40 ppm (marked *)
Description: A dash (-) indicates no test results.

[8] = tested on: fusarium graminearium; experiment: Test I: wheat head scab, preventive spray on wheat seedlings; conditions: 100 = 100% disease control; for pest or weed control at 200 ppm: Fusarium, in Triticum aestivum, topical, 192 h, read-out: Test I disease control rating, 200 ppm
Description: (the causal agent of wheat head scab) and incubated in a saturated atmosphere at 20° C. for 72 h, and then moved to a growth chamber at 22° C. for 5 days, after which disease ratings were made.

[9] = tested on: Erysiphe graminis f. sp. tritici; experiment: Test L: wheat powdery mildew, preventive spray on wheat seedlings; conditions: 100 = 100% disease control; for pest or weed control at 200 ppm: read-out: Test L disease control rating, 200 ppm; for Test L disease control rating: 40 ppm (marked *)
[10] = tested on: Plasmopara viticola; experiment: Test D: grape downy mildew, spray after inoculation of grape seedlings; assay type: in vivo; conditions: 100 = 100% disease control; for pest or weed control at 200 ppm: Plasmopara viticola, 168 h, read-out: Test D disease control rating
Description: Upon removal, disease ratings were made. […] A dash (-) indicates no test results.

[11] = tested on: Botrytis cinerea; experiment: Test E: tomato botrytis, preventive spray on tomato seedlings; conditions: for Test E disease control rating: 40 ppm (marked *), 100 = 100% disease control, 0 = no control
[12] = 40 ppm (marked *), 0 = no control
[13] = Zymoseptoria tritici, 528 h, read-out: Test J disease control rating
[14] = 0 = no control relative to controls
[15] = 200 ppm, 0 = no control relative to controls
[16] = Botrytis cinerea, in Solanum lycopersicum, topical, 72 h, read-out: Test E disease control rating

SMILES	Test F disease control rating [1, 12]	Test B disease control rating ([3]; 0 = no control)	Test A disease control rating [4, 12]	Test G disease control rating ([5]; 0 = no control)	Test H disease control rating [6, 12]	Test J disease control rating [7]	Test I disease control rating [8, 12]	Test D disease control rating [10, 12]	Test E disease control rating [11]	Test K disease control rating [2]	Test L disease control rating ([9]; 0 = no control)	other results
CC(C)Cn1c(-c2c(F)cccc2F)cnc(-n2cccn2)c1=O [Compound 342, 6-(2,6-Difluorophenyl)-1-(2-methylpropyl)-3-(1H-pyrazol-1-yl)-2(1H)-pyrazinone]	–	–	–	–	–	–	–	–	–	–	–	pest or weed control at 200 ppm [1]: 0%; pest or weed control at 200 ppm ([2]; Puccinia recondita, in Triticum aestivum, 192 h, read-out: Test K disease control rating): 98%; pest or weed control at 200 ppm ([3]; Colletotrichum orbiculare, in Cucumis sativus, 144 h, 0 = no control): 0%; pest or weed control at 200 ppm [4]: 0%; pest or weed control at 200 ppm ([5]; Waitea circinata, in Agrostis stolonifera, topical, 144 h, 0 = no control): 95%; pest or weed control at 200 ppm ([6]; Parastagonospora nodorum, in Triticum aestivum, topical, 168 h, 0 = no control): 0%; pest or weed control at 200 ppm ([7]; Zymoseptoria tritici, 528 h, 200 ppm, read-out: Test J disease control rating): 82%; pest or weed control at 200 ppm ([8]; 0 = no control): 0%; pest or weed control at 200 ppm ([9]; Blumeria graminis, in Triticum aestivum, 168 h, 0 = no control): 96%; pest or weed control at 200 ppm ([10]; 200 ppm, 0 = no control): 0%
Nn1c(-c2c(F)cccc2F)c(Cl)nc(-n2cccn2)c1=O [Compound 400, 1-Amino-5-chloro-6-(2,6-difluorophenyl)-3-(1H-pyrazol-1-)-2(1H)-pyrazinone]	0* %	0* %	0* %	0* %	0* %	0* %	0* %	0* %	0* %	–	–	–
NC(=O)c1nc(Cl)c(-c2c(F)cc(F)cc2F)n(-c2cccc(F)c2)c1=O [Compound 414, 6-Chloro-4-(3-fluorophenyl)-3,4-dihydro-3-oxo-5-(2,4,6-trifluorophenyl)pyrazinecarboxamide]	–	–	–	–	–	–	–	–	–	–	–	pest or weed control at 200 ppm [1]: 85%; pest or weed control at 40 ppm ([3]; Colletotrichum orbiculare, in Cucumis sativus, 144 h, read-out: Test B disease control rating, 40 ppm (marked *), 0 = no control): 0%; pest or weed control at 200 ppm [4]: 95%; pest or weed control at 40 ppm ([5]; Waitea circinata, in Agrostis stolonifera, topical, 144 h, read-out: Test G disease control rating, 40 ppm (marked *), 0 = no control): 0%; pest or weed control at 40 ppm ([6]; Parastagonospora nodorum, in Triticum aestivum, topical, 168 h, read-out: Test H disease control rating, 40 ppm (marked *), 0 = no control): 0%; pest or weed control at 40 ppm [7, 13]: 97%; pest or weed control at 200 ppm [8, 14]: 35%; pest or weed control at 40 ppm ([9]; Blumeria graminis, in Triticum aestivum, 168 h, read-out: Test L disease control rating, 40 ppm (marked *), 0 = no control): 98%; pest or weed control at 200 ppm [10, 15]: 40%; pest or weed control at 40 ppm [11, 16]: 99%
CCC(C)Cn1c(-c2ccc(F)cc2F)c(C)nc(C#N)c1=NC(C)=O (stereo not drawn) [Compound 430, N-[3-Cyano-6-(2,4-difluorophenyl)-5-methyl-1-(2-methylbutyl)-2(1H)-pyrazinylidene]acetamide]	–	–	–	–	–	–	–	–	–	–	–	pest or weed control at 200 ppm [1]: 0%; pest or weed control at 200 ppm ([3]; Colletotrichum orbiculare, in Cucumis sativus, 144 h, 0 = no control relative to controls): 0%; pest or weed control at 200 ppm [4]: 0%; pest or weed control at 200 ppm ([5]; Waitea circinata, in Agrostis stolonifera, topical, 144 h, 0 = no control relative to controls): 0%; pest or weed control at 200 ppm ([6]; Parastagonospora nodorum, in Triticum aestivum, topical, 168 h, 0 = no control relative to controls): 0%; pest or weed control at 40 ppm [7, 13]: 86%; pest or weed control at 200 ppm [8, 14]: 0%; pest or weed control at 200 ppm ([9]; Blumeria graminis, in Triticum aestivum, 168 h, 0 = no control relative to controls): 93%; pest or weed control at 200 ppm [10, 15]: 0%; pest or weed control at 200 ppm [11, 16]: 96%
O=c1c(-n2cccn2)nc(Cl)c(-c2c(F)cccc2F)n1Cc1ccccc1F [compound 330]	0* %	0* %	0* %	41* %	99* %	100* %	0* %	0* %	–	100* %	71* %	–
Cc1ccn(-c2nc(Cl)c(-c3c(F)cccc3F)n(Cc3ccc(F)cc3)c2=O)n1 [compound 331]	0* %	90* %	0* %	16* %	100* %	100* %	0* %	47* %	–	100* %	76* %	–
Cc1ccc(-n2c(-c3c(F)cccc3F)c(Cl)nc(-n3ccc(C)n3)c2=O)cc1 [compound 332]	0* %	0* %	0* %	0* %	94* %	98* %	0* %	24* %	–	95* %	71* %	–
Cc1ccc(-n2c(-c3c(F)cccc3F)c(Cl)nc(-n3cccn3)c2=O)cc1 [compound 333]	0* %	37* %	0* %	17* %	99* %	98* %	0* %	47* %	–	99* %	0* %	–
Cc1ccc(-n2c(-c3c(F)cccc3F)c(Cl)nc(-n3cccn3)c2=O)c(C)c1 [compound 334]	0* %	0* %	0* %	0* %	–	96* %	0* %	0* %	–	91* %	0* %	Test H disease control rating ([6]; 200 ppm, 0 = no control): 0%
O=c1c(-n2cccn2)nc(Cl)c(-c2c(F)cccc2F)n1-c1ccc(F)c(F)c1 [compound 388]	0* %	67* %	0* %	0* %	97* %	100* %	0* %	0* %	99* %	–	0* %	–
Cc1ccn(-c2nc(Cl)c(-c3c(F)cccc3F)n(-c3ccc(F)c(F)c3)c2=O)n1 [compound 389]	0* %	98* %	0* %	31* %	94* %	100* %	0* %	0* %	99* %	–	0* %	–
CCCn1c(-c2c(F)cc(F)cc2F)c(Cl)nc(C(N)=O)c1=O [compound 413]	–	0* %	–	0* %	99* %	93* %	–	–	99* %	–	98* %	Test F disease control rating [1, 15]: 95%; Test A disease control rating [4, 15]: 68%; Test I disease control rating [8, 15]: 0%; Test D disease control rating [10, 15]: 64%
CCC(C)Cn1c(-c2c(F)cc(F)cc2F)c(Cl)nc(C(N)=O)c1=O (stereo not drawn) [compound 415]	–	91* %	–	0* %	100* %	95* %	–	–	99* %	–	99* %	Test F disease control rating [1, 15]: 99%; Test A disease control rating [4, 15]: 86%; Test I disease control rating [8, 15]: 0%; Test D disease control rating [10, 15]: 95%
